Experimental data taken from patent publication US20050277600A1, “Compositions and methods of use of dimer digallates” (Mars, Incroporated, priority 2004, published 2005).

Assays:
rabbit aortic rings = assay: Relaxation of norepinephrine pre-constricted rabbit aortic rings ex vivo; details: for Aortic Ring Effective Conc,: Table 1 summary
Method: Several compounds were investigated for their effect on nitric oxide (NO) production and vasorelaxation using serum-free human umbilical vein endothelial cell (HUVEC) culture system in vitro and rabbit aortic ring model ex vivo, respectively. NO production by endothelial cells and relaxation of pre-constricted aortic rings are two main markers for evaluating vascular effects of test compounds. Effect of different procyanidins on endothelium-dependent relaxation was tested in an ex vivo experiment performed as previously described by Karim et al., J. Nutrl Suppl., 130 (8S): […]-[…] (2000), the relevant portions of which are hereby incorporated herein by reference. The advantage of using this method is that it assesses functional vascular end points. […] In summary, rabbit aortic rings were obtained from male New Zealand White rabbits. Following isolation, the rings were mounted in oxygenated Kreb's buffer, and pre-constricted with norepinephrine (NE) (10^-6 M). […] A positive control acetylcholine (10^-9 to 10^-4 M) and a negative control L-NAME were included in the experiment. Use of L-NAME, which is a NO synthase (NOS) inhibitor, allows for differentiating between endothelium dependent and endothelium independent relaxation events. […] The relaxation response was measured as a function of the decrease in the tension (g) exerted by the aortic rings over time […]. Data obtained were expressed as a percent relaxation of the norepinephrine (NE) constricted rings. The same statistical approach as described above was used. Dose response curves were obtained by plotting the average percent relaxation (+/-SE) against the concentrations used.

[1] = system: human umbilical vein endothelial cell (HUVEC) NO production; assay: HUVEC NO production (NOx in cell culture medium, chemiluminescence); assay type: cell-based; details: for HUVEC Cells NOx, 24 hr / HUVEC Cells NOx, 5 d / HUVEC Cells NOx, 2 hr: Table 2 summary; for NO production, positive and negative controls: Experiment 1, acute, 2 hours
Method: Several compounds were investigated for their effect on nitric oxide (NO) production and vasorelaxation using serum-free human umbilical vein endothelial cell (HUVEC) culture system in vitro and rabbit aortic ring model ex vivo, respectively. NO production by endothelial cells and relaxation of pre-constricted aortic rings are two main markers for evaluating vascular effects of test compounds.
HUVECs obtained from a single donor were cultured in serum free, low protein (0.5 g/l), antibiotic-free cell culture medium supplemented with essential growth factors, nutrients and minerals. […] The cell culture medium was substituted with apo-transferrin, superoxide dismutase, and catalase to exclude secondary effects of test compounds involving their auto-oxidation mediated hydrogen peroxide formation.
NO production was evaluated by measuring the total amount of all major nitric oxide end products (NOx, including nitrate, nitrite, nitrosothiols) present in the cell culture medium. […] The amount of NO released from the culture medium was subsequently evaluated by measuring the chemiluminescence emitted during the stoichiometrical reaction between ozone and NO using a NO Analyzer (Sievers Instruments, Inc. Boulder, Colo.).
The data presented herein were obtained from three experiments and were expressed as the concentration of NO present (in μmol/l) (as NOx) in the cell culture medium+/−standard deviation (SD). The data were corrected for the NOx intrinsically present in the fully supplemented cell culture medium and normalized with respect to the volume of media from which the sample was drawn. Data were analyzed using Student's t-test with a 95% level of confidence. P values equal to or less than 0.05 were defined as statistically significant.
For the acute effect test, HUVECs were incubated with the test compounds for 2 hours at concentrations of 100 nM, 1 μM, and 10 μM at 37° C. and 5% CO2. […] (FIG. 1)
For the chronic effect test, HUVECs were incubated with 5 subsequent doses of test compounds, each for 24 hours. After each 24 hour treatment, culture medium was replaced.
For the acute effect test, HUVECs were incubated with a single dose of the test compounds for 24 hours at concentrations of 100 nM, 1 μM, and 10 μM at 37° C. and 5% CO2.

HUVEC = assay: HUVEC-mediated MTT reduction (toxic effects); details: for cell-mediated MTT reduction: Experiment 2, chronic, 5 x 24 hours, 10 μM (20 μM for the Epicatechin gallates)
Method: Cell counts and total protein were used to assess intra-assay variation. Potential toxic effects of tested compounds were also monitored (MTT reduction was measured).

[2] = Experiment 2, single dose, 24 hours, 1 μM
[3] = Experiment 2, single dose, 24 hours, 10 μM
[4] = Experiment 4, 10^−9M -10^4M (so in the source)
[5] = Experiment 1, chronic, 5 subsequent 24 hour doses

In the case of O=C(O[C@H]1[C@@H](c2c(O)cc(O)c3c2O[C@H](c2ccc(O)c(O)c2)[C@H](OC(=O)c2cc(O)c(O)c(O)c2)C3)c2c(O)cc(O)cc2O[C@@H]1c1ccc(O)c(O)c1)c1cc(O)c(O)c(O)c1 [C-(4β→8)-EC digallate, (+)-Catechin-(4β,8)-(−)-Epicatechin Digallate], the “relaxation response, percent relaxation of NE constricted rings” value (“relaxation response, percent relaxation” for short) (rabbit aortic rings; Experiment 2, 10^−4 M) is reported as 72.4+/−17.4%, the relaxation response (rabbit aortic rings; Experiment 2, 10^−5 M) is reported as 33.1% and the “Max Relaxation” value (rabbit aortic rings; Experiment 3, 10 μM and 100 μM) is reported as 72%. The NO production [1, 2] was “statistically significant increases in NO production”, the “HUVEC Cells NOx, 24 hr” value ([1]; 1 µM) was 1 uM, sign. Incr. NOx; 10 uM, and the “HUVEC Cells NOx, 24 hr” value ([1]; 10 µM) was “no sign. effect on NOx, Cell”. The “HUVEC Cells NOx, 5 d” value [1] was “No significant NOx increase;”, the “cell-mediated MTT reduction” value (HUVEC) was “significant decline of cell-mediated MTT reduction” and the “cell-mediated reduction of MTT” value (HUVEC; [2]) was “no effect on cell-mediated reduction of MTT”. For the same compound, the “loss of HUVEC MTT reduction as compared to controls” value (HUVEC; [3]) was 47% and the “HUVEC Cells cell toxicity, 24 hr” value (HUVEC; Table 2 summary, 24 hr, 10 uM) was “toxicity”.

In the case of NCCc1c[nH]cn1 [histamine, reference compound], the “NO production, positive and negative controls” value ([1]; compared to vehicle) is reported as “statistically significant increase in NO production”.

In the case of Oc1cc(O)c2c(c1)O[C@H](c1ccc(O)c(O)c1)[C@@H](O)[C@H]2c1c(O)cc(O)c2c1O[C@H](c1ccc(O)c(O)c1)[C@@H](O)C2 [C-(4β→8)-C, (+)-Catechin-(4β,8)-(+)-Catechin], the relaxation response (rabbit aortic rings; Experiment 1, 10^−9 to 10^−4 M) is reported as “No significant relaxation response”, the relaxation response (rabbit aortic rings; Experiment 2, 10^−9 to 10^−4 M) is reported as “No significant relaxation response” and the “HUVEC NO production” value ([1]; Experiment 2, chronic, 5 subsequent 24 hour doses) is reported as “increase in HUVEC NO production”. The “HUVEC Cells NOx, 2 hr” value [1] was “no effect”, the “HUVEC Cells NOx, 24 hr” value [1] was “no effect” and the “HUVEC Cells NOx, 5 d” value [1] was 10 uM, significant NOx increase.

With COC(=O)[C@@H](N)CCCNC(=N)N[N+](=O)[O-] [L-NAME, reference compound] the “relaxation responses after pre-treatment with NOS inhibitor” value (rabbit aortic rings; vessels pre-treated with negative control) was “relaxation responses were attenuated”.

With Oc1cc(O)c2c(c1)O[C@H](c1ccc(O)c(O)c1)[C@@H](O)[C@@H]2c1c(O)cc(O)c2c1O[C@H](c1ccc(O)c(O)c1)[C@H](O)C2 [C-(4α→8)-EC] the relaxation response (rabbit aortic rings; Experiment 2, 10^−9 to 10^−4 M) was “No significant relaxation response”.

In the case of “(−)-Epicatechin-(4β,8)-(OMethyl)4-(−)-Epicatechin Digallate [EC-(4β→8)(OMethyl)4-EC digallate]”, the relaxation response (rabbit aortic rings; Experiment 1, 10^−9 to 10^−4 M) is reported as “No significant relaxation response”, the “HUVEC Cells NOx, 2 hr” value [1] is reported as “no effect” and the “HUVEC Cells NOx, 24 hr” value [1] is reported as “no effect”. For the same compound, the “HUVEC Cells NOx, 5 d” value [1] was 10 uM, significant NOx increase.

For O=C(O)c1cc(O)c(O)c(O)c1 [Gallic Acid, reference compound], the relaxation response (rabbit aortic rings; [4]) was “No significant relaxation response”.

In the case of Oc1cc(O)c2c(c1)O[C@H](c1cc(O)c(O)c(O)c1)[C@H](O)C2 [EGC, Epigallocatechin, reference compound], the relaxation response (rabbit aortic rings; [4]) is reported as “No significant relaxation response”.

In the case of CC(=O)OCC[N+](C)(C)C [acetylcholine, reference compound], the “concentration producing a relaxation response” value (rabbit aortic rings; positive control) is reported as 10^−7 M and the “concentration reaching maximal relaxation” value (rabbit aortic rings; positive control) is reported as 10^−6 M.

In the case of CNC(=N)NCCC[C@H](N)C(=O)O [L-NNMA, reference compound], the “NO production, positive and negative controls” value ([1]; compared to vehicle) is reported as “completely attenuated the acetylcholine and histamine-NO production” and the “NOx production, positive and negative controls” value ([1]; Experiment 2, single dose, 24 hours, compared to vehicle) is reported as “completely attenuated the acetylcholine-induced NO production”.

With Oc1cc(O)c2c(c1)O[C@H](c1ccc(O)c(O)c1)[C@H](O)[C@H]2c1c(O)cc(O)c2c1O[C@H](c1ccc(O)c(O)c1)[C@H](O)C2 [EC-(4β→8)-EC] the relaxation response (rabbit aortic rings; Experiment 1, 10^−9 to 10^−4 M) was “No significant relaxation response” and the MTT reduction (HUVEC; [5]) was “decline in MTT reduction”.

For Oc1cc(O)c2c(c1)O[C@H](c1ccc(O)c(O)c1)[C@@H](O)[C@H]2c1c(O)cc(O)c2c1O[C@H](c1ccc(O)c(O)c1)[C@H](O)C2 [C-(4β→8)-EC], the relaxation response (rabbit aortic rings; Experiment 2, 10^−9 to 10^−4 M) was “No significant relaxation response” and the “cell-mediated MTT reduction” value (HUVEC) was “significant decline of cell-mediated MTT reduction”.

In the case of Oc1cc(O)c2c(c1)O[C@H](c1ccc(O)c(O)c1)[C@@H](O)[C@@H]2c1c(O)cc(O)c2c1O[C@H](c1ccc(O)c(O)c1)[C@@H](O)C2 [C-(4α→8)-C, (+)-Catechin-(4α,8)-(+)-Catechin], the “relaxation response, percent relaxation” value (rabbit aortic rings; Experiment 1, 10^−4 M) is reported as 60.80+/−15.09%, the “Max Relaxation” value (rabbit aortic rings; Experiment 3, 100 μM) is reported as 61% and the “Aortic Ring Effective Conc,” value (rabbit aortic rings) is reported as 100 µM. The NO production ([1]; Experiment 1, 24 h after single dose, 10 μM) was “increased NO production”, the NO production [1, 5] was “did not modulate NO production” and the “HUVEC Cells NOx, 2 hr” value [1] was “no effect”. The “HUVEC Cells NOx, 24 hr” value [1] was 10 uM, sign. NOx incr and the “HUVEC Cells NOx, 5 d” value [1] was “no effect”.

With O=C(O[C@H]1[C@H](c2c(O)cc(O)c3c2O[C@H](c2ccc(O)c(O)c2)[C@@H](OC(=O)c2cc(O)c(O)c(O)c2)C3)c2c(O)cc(O)cc2O[C@@H]1c1ccc(O)c(O)c1)c1cc(O)c(O)c(O)c1 [C-(4α→8)-C digallate, (+)-Catechin-(4α,8)-(+)-Catechin Digallate] the “relaxation response, percent relaxation” value (rabbit aortic rings; Experiment 2, 10^−4 M) was 71.7+/−11.6%, the “Max Relaxation” value (rabbit aortic rings; Experiment 3, 100 μM) was 72% and the “Aortic Ring Effective Conc,” value (rabbit aortic rings) was 100 µM.

O=C(O[C@@H]1[C@@H](c2c(O)cc(O)c3c2O[C@H](c2ccc(O)c(O)c2)[C@@H](OC(=O)c2cc(O)c(O)c(O)c2)C3)c2c(O)cc(O)cc2O[C@@H]1c1ccc(O)c(O)c1)c1cc(O)c(O)c(O)c1 [EC-(4β→8)-C digallate, (−)-Epicatechin-(4β,8)-(+)-Catechin Digallate] was tested, and the “relaxation response, percent relaxation” value (rabbit aortic rings; Experiment 2, 10^−4 M) was 56.7+/−15.4%, the “Max Relaxation” value (rabbit aortic rings; Experiment 3, 100 μM) was 57% and the “Aortic Ring Effective Conc,” value (rabbit aortic rings) was 100 µM.

With Cc1c(O)c(C2c3c(O)cc(O)cc3OC(c3ccc(O)c(O)c3)C2O)c(O)c2c1OC(c1ccc(O)c(O)c1)C(O)C2 (stereo not drawn) [EC(4β→6)EC-8methyl] the relaxation response (rabbit aortic rings; Experiment 2, 10^−9 to 10^−4 M) was “No significant relaxation response”.

With O=C(O[C@@H]1Cc2c(O)cc(O)cc2O[C@@H]1c1cc(O)c(O)c(O)c1)c1cc(O)c(O)c(O)c1 [EGCG, Epigallocatechingallate, reference compound] the relaxation response (rabbit aortic rings; [4]) was “No significant relaxation response”, the “modulation of NO production” value [1, 3] was “statistically significant ability to modulate NO production” and the “HUVEC Cells NOx, 24 hr” value [1] was 20 uM, sign. NOx inc. For the same compound, the “HUVEC Cells NOx, 5 d” value [1] was “No significant NOx increase;”.

In the case of O=C(O[C@@H]1Cc2c(O)cc(O)cc2O[C@@H]1c1ccc(O)c(O)c1)c1cc(O)c(O)c(O)c1 [ECG, Epicatechingallate, reference compound], the relaxation response (rabbit aortic rings; [4]) is reported as “No significant relaxation response” and the “cell-mediated MTT reduction” value (HUVEC) is reported as “significant decline of cell-mediated MTT reduction”.

For O=C(O[C@H]1[C@@H](c2c(O)cc(O)c3c2O[C@H](c2ccc(O)c(O)c2)[C@@H](OC(=O)c2cc(O)c(O)c(O)c2)C3)c2c(O)cc(O)cc2O[C@@H]1c1ccc(O)c(O)c1)c1cc(O)c(O)c(O)c1 [C-(4β→8)-C digallate, (+)-Catechin-(4β,8)-(+)-Catechin Digallate], the “relaxation response, percent relaxation” value (rabbit aortic rings; Experiment 2, 10^−4 M) was 72.6+/−9.8%, the “Max Relaxation” value (rabbit aortic rings; Experiment 3, 100 μM) was 73% and the “Aortic Ring Effective Conc,” value (rabbit aortic rings) was 100 µM.
